Data published in patent EP0048827A1, “Substituted 2,4-dichlorophenyl-imidazolyl-vinyl ketones, processes for their preparation and antimicrobial agents containing these compounds” (BAYER AG, priority 1980, dated 1982).

Tested on: Dermatophyten und Schimmelpilze; Hefen
Assay: Antimycotic in-vitro activity, serial dilution test
Format: cell-based
Settings: 28°C, 24 h for yeasts, 96 h for dermatophytes and moulds, compared with the prior-art compound (A)
Protocol: Die in-vitro-Prüfung wurde im Reihenverdünnungstest mit Keiminokula von durchschnittlich […] Substrat durchgeführt. Als Nährmedium dienten • a) für Dermatophyten und Schimmelpilze: Sabourand's milieu d'epresive • b) für Hefen: Isotonic Sensitest-Broth von Oxid.
Die Bebrütungstemperatur betrug 28°C; Bebrütungsdauer war 24 Stunden bei Hefen und 96 Stunden bei Dermatophyten und Schimmelpilzen.

| Compound | antimykotische Wirkung |
| --- | --- |
| 1-(2,4-Dichlorphenyl)-2-Eimidazol-1-yl)-3-(methylcyclohexen-3-yl)-2-propen-l-on [Beispiel 1] | bessere antimykotische Wirkung als die aus dem Stand der Technik bekannte Verbindung (A) |
| CCC(C=C(C(=O)c1ccc(Cl)cc1Cl)n1ccnc1)CC [Beispiel 5] | bessere antimykotische Wirkung als die aus dem Stand der Technik bekannte Verbindung (A) |
| CCCCC(C=C(C(=O)c1ccc(Cl)cc1Cl)n1ccnc1)CC (centres unmarked) [Beispiel 9] | bessere antimykotische Wirkung als die aus dem Stand der Technik bekannte Verbindung (A) |
| CCC(C)C=C(C(=O)c1ccc(Cl)cc1Cl)n1ccnc1 (centres unmarked) [Beispiel 6] | bessere antimykotische Wirkung als die aus dem Stand der Technik bekannte Verbindung (A) |
| CCCC(C)C=C(C(=O)c1ccc(Cl)cc1Cl)n1ccnc1 (centres unmarked) [Beispiel 7] | bessere antimykotische Wirkung als die aus dem Stand der Technik bekannte Verbindung (A) |
